In assay [1] the target is T1, CB2 receptor (Homo sapiens, UniProt P34972). Kind of assay: cell-based. Further details: host or cells: cAMP Hunter cell lines. The essentials:
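PathHunter β-Arrestin enzyme fragment complementation cells, EA-tagged β-Arrestin and PK-tagged receptor, exposed to compound for 90 to 180 minutes at 37° C. or room temperature, 1% vehicle. Chemiluminescence read 1 h after detection reagent; agonist % activity relative to vehicle and MAX control ligand.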

Assay [2] has as its target T2, CB1 receptor (Homo sapiens, UniProt P21554). The experiment in a line: cell-based. Also on record: host or cells: PathHunter cell lines.
Assay [3] deals with T2, CB1 receptor. Kind of assay: cAMP Assay #2: Hit Hunter cAMP assay, Gi-coupled agonist activity, CB1. It is filed as cell-based. Further details: host or cells: PathHunter cell lines. (Changes in cAMP serve as a functional read-out for many G protein-coupled receptors.)
Assay [4] has as its target T1, CB2 receptor. Kind of assay: cAMP Assay #1: CB2 adenylylcyclase assay in CHO cells. Also on record: expressed in transfected cells; host or cells: CHO cells. It is filed as cell-based. The essentials: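 Agonism measured as cAMP production in CHO cells expressing human recombinant CB2, incubated with compound for 10 min at 37 °C. EC50 obtained by Hill-equation non-linear regression of mean replicate concentration-response data.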

Assay [5] concerns the target T1, CB2 receptor. The experiment in a line: CB2 competitive radioligand binding assay ([3H] WIN-55,212-2). Further details: expressed in transfected cells; host or cells: CHO-K1 cells. As to conditions: for inhibition at 0.05 µM: 0.05 μM compound, 2.4 nM [3H] WIN-55,212-2, 90 min 37° C.; for Fold Selectivity (CB1/CB2): Table 2, ratio of Ki CB1/CB2. An outline of the steps:
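CHO-K1 cells expressing human recombinant CB2 were incubated with compound (0.05 μM, 1% DMSO) and 2.4 nM [3H]WIN-55,212-2 in 20 mM HEPES pH 7.0, 0.5% BSA for 90 min at 37 °C. Percent inhibition of radioligand binding was reported.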

Setting [6] is: PathHunter agonist mode, read-out: CB2 Activity (β-Arrestin).
The mark [7] stands for this setting: PathHunter agonist mode, read-out: CB1 Activity (β-Arrestin).
Where [8] appears, read: Hit Hunter cAMP, 20 μM forskolin, control ligand CP55,940, read-out: CB1, EC50.
Where [9] appears, read: CHO cells, 10 min 37° C., relative to 100 nM WIN 55212-2, read-out: CB2 Activity EC50 (cAMP).
[10] abbreviates: Table 2, read-out: CB2 Binding Ki.

SMILES strings stand for the structures. Like-named read-outs stand apart in the source and are kept apart here. Bounds are passed on as bounds.

T2 sequence (P21554 whole entry): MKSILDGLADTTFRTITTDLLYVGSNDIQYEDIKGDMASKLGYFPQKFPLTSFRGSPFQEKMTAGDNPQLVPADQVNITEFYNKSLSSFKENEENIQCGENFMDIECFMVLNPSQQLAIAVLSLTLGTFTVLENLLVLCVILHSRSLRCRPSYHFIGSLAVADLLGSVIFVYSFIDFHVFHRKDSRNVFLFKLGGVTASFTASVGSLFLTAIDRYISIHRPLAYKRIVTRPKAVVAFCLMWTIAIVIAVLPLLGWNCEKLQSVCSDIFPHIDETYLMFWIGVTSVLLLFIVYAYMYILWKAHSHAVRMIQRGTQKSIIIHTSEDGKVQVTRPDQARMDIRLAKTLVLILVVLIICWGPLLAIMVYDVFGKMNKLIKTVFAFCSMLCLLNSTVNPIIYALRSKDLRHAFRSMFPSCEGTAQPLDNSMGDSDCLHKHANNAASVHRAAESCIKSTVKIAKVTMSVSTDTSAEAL
T1 sequence (P34972 whole entry, the tested form may be a part): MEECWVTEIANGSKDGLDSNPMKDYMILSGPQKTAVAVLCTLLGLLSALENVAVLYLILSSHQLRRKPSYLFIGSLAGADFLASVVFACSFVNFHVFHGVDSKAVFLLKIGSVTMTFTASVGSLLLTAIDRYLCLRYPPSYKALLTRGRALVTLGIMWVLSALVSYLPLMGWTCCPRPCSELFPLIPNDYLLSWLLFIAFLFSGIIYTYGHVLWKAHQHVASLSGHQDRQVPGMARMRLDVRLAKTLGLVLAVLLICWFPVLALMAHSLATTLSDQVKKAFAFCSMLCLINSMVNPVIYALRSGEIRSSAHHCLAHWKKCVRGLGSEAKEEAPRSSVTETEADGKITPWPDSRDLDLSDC

The term inhibition denotes the drop in the measured response relative to a control, in per cent. Lower therefore signals a weak effect. By Ki is commonly meant the dissociation constant of the complex between target and ligand, obtained from inhibition or displacement. Take `CCCCCCC(C)(C)c1cc(O)c2c(c1)OC(C)(C)[C@@H]1CC=C(C(=O)NC(CO)CO)C[C@@H]21` [Compound 25, (6aR,10aR)-N-(1,3-Dihydroxypropan-2-yl)-1-hydroxy-6,6-dimethyl-3-(2-methyloctan-2-yl)-6a,7,10,10a-tetrahydro-6H-benzo[c]chromene-9-carboxamide]: the EC50 at CB2 receptor [1] (setting [6]) was 10 nM; on CB1 receptor [2] (setting [7]), greater than 3000 nM; on CB1 receptor [3] (setting [8]) it was 360 nM; at CB2 receptor [4] (setting [9]), 11 nM. This compound also had an inhibition at 0.05 µM on CB2 receptor [5] of 36%. Moreover, the “Fold Selectivity (CB1/CB2)” value on CB2 receptor [5] stood at 4.33. The inhibitory constant (Ki) at CB2 receptor [5] (setting [10]) was 73 nM.

Take `CCCCCCC(C)(C)c1cc(O)c2c(c1)OC(C)(C)[C@@H]1CC=C(C(=O)OC(C)C)C[C@@H]21` [Compound 29, Isopropyl (6aR,10aR)-1-hydroxy-6,6-dimethyl-3-(2-methyloctan-2-yl)-6a,7,10,10a-tetrahydro-6H-benzo[c]chromene-9-carboxylate]: the EC50 came out at 3 nM on CB2 receptor [1] (setting [6]), 47 nM at CB1 receptor [2] (setting [7]), 9.6 nM on CB1 receptor [3] and 2.3 nM on CB2 receptor [4]. Besides, on CB2 receptor [5], the inhibition at 0.05 µM worked out at 79%.

Turning to `CCCCCCC(C)(C)c1cc(O)c2c(c1)OC(C)(C)[C@@H]1CC=C(C(=O)NC[C@H](O)CO)C[C@@H]21` [Compound 56, (6aR,10aR)-N—((S)-2,3-Dihydroxypropyl)-1-hydroxy-6,6-dimethyl-3-(2-methyloctan-2-yl)-6a,7,10,10a-tetrahydro-6H-benzo[c]chromene-9-carboxamide], the EC50 on CB2 receptor [1] (setting [6]) is 6.9 nM; at CB1 receptor [2] (setting [7]), greater than 3000 nM; at CB1 receptor [3] (setting [8]), 250 nM; at CB2 receptor [4] (setting [9]) it was 8.7 nM. Also, the “Fold Selectivity (CB1/CB2)” value on CB2 receptor [5] stood at 17. For the same compound, on CB2 receptor [5] (setting [10]), the inhibition constant Ki amounted to 41 nM.

For `CCCCCCC(C)(C)c1cc(O)c2c(c1)OC(C)(C)[C@@H]1CC=C(C(=O)NC(C)(C)CCO)C[C@@H]21` [Compound 15, (6aR,10aR)-1-Hydroxy-N-(4-hydroxy-2-methylbutan-2-yl)-6,6-dimethyl-3-(2-methyloctan-2-yl)-6a,7,10,10a-tetrahydro-6H-benzo[c]chromene-9-carboxamide], the EC50 at CB2 receptor [1] (setting [6]) is greater than 3000 nM; at CB1 receptor [2] (setting [7]), greater than 3000 nM; at CB1 receptor [3] (setting [8]), 448 nM; on CB2 receptor [4] (setting [9]), 7.5 nM. The compound also showed an inhibition at 0.05 µM at CB2 receptor [5] of 54%. For the same compound, on CB2 receptor [5], the “Fold Selectivity (CB1/CB2)” value was determined as 18.3. Besides, the Ki on CB2 receptor [5] (setting [10]) was 36 nM.

With `CCCCCCC(C)(C)c1cc(O)c2c(c1)OC(C)(C)[C@@H]1CC=C(C(=O)NC[C@@H](O)CO)C[C@@H]21` [Compound 55, (6aR,10aR)-N—((R)-2,3-Dihydroxypropyl)-1-hydroxy-6,6-dimethyl-3-(2-methyloctan-2-yl)-6a,7,10,10a-tetrahydro-6H-benzo[c]chromene-9-carboxamide], the EC50 on CB2 receptor [1] (setting [6]) was 6.9 nM; at CB1 receptor [2] (setting [7]), greater than 3000 nM; on CB1 receptor [3] (setting [8]), 175 nM; on CB2 receptor [4] (setting [9]), 5.2 nM. Also, the “Fold Selectivity (CB1/CB2)” value on CB2 receptor [5] is on record as 19. Also, on CB2 receptor [5] (setting [10]), the inhibition constant Ki was 33 nM.

On to `CCCCCCC(C)(C)c1cc(O)c2c(c1)OC(C)(C)[C@@H]1CC=C(C(=O)O)C[C@@H]21` [AJA, (6aR,10aR)-1-hydroxy-6,6-dimethyl-3-(2-methyl-2-octanyl)-6a,7,10,10a-tetrahydro-6H-benzo[c]chromene-9-carboxylic acid, reference compound], for which the EC50 at CB2 receptor [1] was determined as 11 nM; on CB1 receptor [2], 1240 nM; at CB1 receptor [3], 77.1 nM; at CB2 receptor [4], 21 nM. At CB2 receptor [5], this compound yielded a Ki of 633 nM. Besides, the inhibition at 0.05 µM at CB2 receptor [5] stood at 0%.

These data come from patent US20210284621A1 (priority 2018, published 2021).
